Experiment: Excretion of 14C-cabozantinib radioactivity in healthy subjects
Type: in vivo, human
Conditions: 72 hour collection
Method: Approximately 81% of the total administered radioactivity was recovered within a 48-day collection period following a single 140 mg dose of an investigational ^14C-cabozantinib formulation in healthy subjects. Approximately 54% was recovered in feces and 27% in urine.

COc1cc2nccc(Oc3ccc(NC(=O)C4(C(=O)Nc5ccc(F)cc5)CC4)cc3)c2cc1OC [cabozantinib]
Unchanged cabozantinib as share of total radioactivity in feces: 43%

Source: US20190262330A1, “Method of Treating Hepatocellular Carcinoma Using N-(4-(6,7-dimethoxyquinolin-4-yloxy)phenyl)-N′-(4-fluorophenyl)cyclopropane-1,1-dicarboxamide, (2S)-hydroxybutanedioate” (Exelixis, Inc., priority 2017, published 2019)
